Data reported in patent publication US5876676A, “Preservation of blood platelets” (priority 1996, dated 1999).

Tests used:
[1] = following intracellular microinjection; cited from earlier work
platelets = test: Nucleation activity of cytoskeletons from platelets pre-incubated with cytochalasin B (pyrene-actin assembly, Table III); assay type: cell-based, human; conditions: for Assembly rate (barbed end): cytochalasin washed out; for Assembly rate (barbed end) / Assembly rate (pointed end): n=4
Experimental: The effect of inhibiting barbed end actin assembly in thrombin-activated cells before detergent lysis on the amount of nucleation activity was determined by preincubating resting platelet suspensions with 2 uM cytochalasin B for 5 min. Because it was necessary to wash out the cytochalasin B from some of the cytoskeletons before addition of the cell lysates to the pyrene assembly assay, the cells were first attached to glass coverslips while still in the presence of cytochalasin B. This was accomplished by sedimenting 0.3 ml of cell suspension onto a 12 mm round glass coverslip for 5 min at 250 g. Individual coverslips were removed, treated with thrombin for 15 s in the presence of cytochalasin B, permeabilized with 1× PHEM-Triton buffer containing 2 uM cytochalasin B for 15 s and then washed in PHEM buffer in the presence or absence of cytochalasin B. Coverslips were then immediately assayed for their ability to promote actin filament assembly as previously described by us using glass adherent macrophage cytoskeletons (Hartwig, J., and P. Janmey, 1989 Biochim. Biophys. Acta. 1010:64-71).
In reference to Table III, resting platelets were incubated with 2 μM cytochalasin B for 5 min, then adhered by centrifugation to 12-mm round glass coverslips coated with polylysine. Cells on the coverslips were exposed to 1 U/ml of thrombin for 30 s in the presence of cytochalasin B and then permeabilized with PHEM-Triton buffer. […] There were 4.2×10^7 platelets per assay. The data are expressed as mean ± SD, n=4. The barbed end assembly rate, initial pointed end addition rate and initial barbed end addition rate were as described in Table I.

[2] = test system: barbed end of actin filaments; test: Pyrene-labeled actin assembly (nucleation) assay in detergent lysates of resting and thrombin-activated platelets; assay type: biochemical, human
Experimental: The effect of cell lysates on the rate and extent of pyrene-labeled rabbit skeletal muscle actin was determined as described previously (Hartwig, J., and P. Janmey, 1989 Biochim. Biophys. Acta. 1010:64-71). Suspensions of resting or thrombin-activated cells at concentrations of 1.4×10^8 /ml were permeabilized by the addition of 0.1 volume of 60 mM Pipes, 25 mM Hepes, 10 mM EGTA, 2 mM MgCl2, 0.75% Triton and 42 nM leupeptin, 10 mM benzamidine, and 0.123 mM aprotinin to inhibit proteases (Schliwa, J., et al., 1981 Proc. Natl. Acad. Sci. USA 80:5417-5420). 100 ul of detergent lysate was added to 190 ul of 100 mM KCl, 2 mM MgCl2, 0.5 mM ATP, 0.1 mM EGTA, 0.5 mM dithiothreitol, and 10 mM Tris, pH 7.0 and the polymerization rate assay was started by the addition of monomeric pyrene-labeled rabbit skeletal muscle actin to a final concentration of 2 uM. The relative contribution of nuclei with barbed or pointed ends in the cell lysates was determined by adding 2 uM cytochalasin B to the pyrene nucleation assay system. […] Activity not inhibited by cytochalasin B is considered pointed end assembly. […] To determine if the measured stimulation of actin assembly and its decay with time was due to the growth of pyrene-actin addition onto cellular filaments subject to depolymerization in the diluted lysate, 0.1 uM phalloidin or phallacidin was added to the cell lysates during their preparation to stabilize the filaments. […] However, we also determined that the soluble phase from cells permeabilized with detergent in the presence of EGTA contained calcium dependent nucleation activity. […] The amount of pointed end activity in these soluble extracts was determined by adding a final concentration of 2 uM cytochalasin B to the pyrene-actin assembly assay.
In reference to Table I, gel-filtered platelets were suspended to a concentration of 1.4×10^8 /ml in platelet buffer, rested for 30 minutes at 37° C., and then treated with or without 1 U/ml of thrombin for 15 s. […] Data are expressed as mean±SD, n=4.

[3] = test system: pointed end actin nuclei in soluble fraction of platelet lysates; test: Calcium-sensitive soluble nucleation activity in supernatants of platelet lysates (pyrene-actin assembly); assay type: biochemical, human
Experimental: The effect of cell lysates on the rate and extent of pyrene-labeled rabbit skeletal muscle actin was determined as described previously (Hartwig, J., and P. Janmey, 1989 Biochim. Biophys. Acta. 1010:64-71). Suspensions of resting or thrombin-activated cells at concentrations of 1.4×10^8 /ml were permeabilized by the addition of 0.1 volume of 60 mM Pipes, 25 mM Hepes, 10 mM EGTA, 2 mM MgCl2, 0.75% Triton and 42 nM leupeptin, 10 mM benzamidine, and 0.123 mM aprotinin to inhibit proteases (Schliwa, J., et al., 1981 Proc. Natl. Acad. Sci. USA 80:5417-5420). 100 ul of detergent lysate was added to 190 ul of 100 mM KCl, 2 mM MgCl2, 0.5 mM ATP, 0.1 mM EGTA, 0.5 mM dithiothreitol, and 10 mM Tris, pH 7.0 and the polymerization rate assay was started by the addition of monomeric pyrene-labeled rabbit skeletal muscle actin to a final concentration of 2 uM. The relative contribution of nuclei with barbed or pointed ends in the cell lysates was determined by adding 2 uM cytochalasin B to the pyrene nucleation assay system. […] Activity not inhibited by cytochalasin B is considered pointed end assembly. The stability of nucleation activity in cell lysates was tested by comparing the stimulatory effect of fresh lysate on actin assembly with lysates allowed to stand for 30 s to 30 min at 37° C. before addition to the assembly assay. To determine if the measured stimulation of actin assembly and its decay with time was due to the growth of pyrene-actin addition onto cellular filaments subject to depolymerization in the diluted lysate, 0.1 uM phalloidin or phallacidin was added to the cell lysates during their preparation to stabilize the filaments. As shown in the results, all nucleation activity present in resting and activated cells was associated with the detergent-insoluble cytoskeleton. However, we also determined that the soluble phase from cells permeabilized with detergent in the presence of EGTA contained calcium dependent nucleation activity. Detergent lysates from resting and thrombin-activated cells (30 s, 1 U/ml) were centrifuged at 10,000 g for 2 min at room temperature in a microcentrifuge. The supernatant was removed and added to the pyrene-based nucleation assay in the presence of 1 mM EGTA or CaCl2. The amount of pointed end activity in these soluble extracts was determined by adding a final concentration of 2 uM cytochalasin B to the pyrene-actin assembly assay.
In reference to Table II, lysates were prepared from resting thrombin-treated cells with detergent and centrifuged in a Sorvall Microspin 12S at 13,000 rpm for 1 min. Nucleation activity remaining in the supernatant after removal of the cytoskeletal fraction was determined. […] The data are expressed as mean±SD, n=4. […]

cells in vitro = conditions: cited from earlier work
mice = conditions: cited from earlier work
[4] = Activated: 2 μM cytochalasin B, 1 U/ml thrombin 30 s
[5] = Activated: 2 μM cytochalasin B, then 1 U/ml thrombin 30 s
[6] = Resting platelets incubated with 2 μM cytochalasin B
[7] = Resting platelets incubated with 2 μM cytochalasin B 5 min
[8] = Activated (thrombin), + 2 μM CB, supernatant, mean±SD, n=4

For O=C(O)CN(CC(=O)O)c1ccccc1OCCOc1ccccc1N(CC(=O)O)CC(=O)O [BAPTA, 1,2-bis(2-aminophenoxy) ethane N,N,-N',N'-tetraacetic acid], the “Binding to membranes or toxic effects” value [1] is listed as “little or no”.

In the case of C=C1C(C)C2C(Cc3ccccc3)NC(=O)C23OC(=O)C=CC(O)CCCC(C)CC=CC3C1O (stereo not shown) [cytochalasin B], the “Nucleation activity after cytochalasin B treatment of resting cells” value (platelets; 2 μM cytochalasin B, resting platelets) is reported as “did not by itself result in nucleation activity”, the Barbed nuclei/platelet (platelets; [4]) is reported as 380 and the Pointed nuclei/platelet (platelets; [4]) is reported as 1,980. For the same compound, the “Subunits added to barbed ends” value (platelets; [4]) was 3.9e+11 s⁻¹, the “Subunits added to pointed ends” value (platelets; [4]) was 9.95e+10 s⁻¹ and the “Assembly rate (barbed end)” value (platelets; [5]) was 1.59 nM/s. For the same compound, the “Assembly rate (pointed end)” value (platelets; [5]) was 0.55 nM/s, the Barbed nuclei/platelet (platelets; [6]) was 50 and the Pointed nuclei/platelet (platelets; [6]) was 1,980. The “Subunits added to barbed ends” value (platelets; [6]) was 2e+10 s⁻¹, the “Subunits added to pointed ends” value (platelets; [6]) was 9.95e+10 s⁻¹ and the “Assembly rate (barbed end)” value (platelets; [7]) was 0.18 nM/s. The “Assembly rate (pointed end)” value (platelets; [7]) was 0.55 nM/s, the “Stimulation of pyrene-actin assembly rate by thrombin-activated, cytochalasin B-treated cytoskeletons compared with resting cells incubated with cytochalasin B” value (platelets; cytochalasin present during activation, washed away before assay) was “four-fold” and the “Pyrene actin assembly onto actin filaments at the barbed end” value ([2]; 2 uM cytochalasin B) was “completely inhibited”. The “Stimulatory effect of lysates on pyrene-actin assembly rate” value ([2]; 2 uM cytochalasin B added to assay, lysates of platelets activated with 1 U/ml thrombin) was “abolished”, the “Effect on nucleation activity of lysates from resting cells” value ([2]; 2 uM cytochalasin B added to lysates, resting platelets) was “only a small effect” and the “Calcium-dependent soluble actin nucleation activity” value ([3]; 2 uM cytochalasin B, soluble fraction, thrombin-activated platelets) was “completely unaffected”. For the same compound, the “Assembly Rate” value [3, 8] was 0.55 ± 0.02 nM/s, the Pointed nuclei/platelet [3, 8] was 5,000 ± 250 and the “Subunits added to pointed ends” value [3, 8] was 1.0 ± 0.05 ×10^10 s^-1. The MNTC (cells in vitro; 2 h) was ≤ 200 µM, the Non-cytotoxic concentration (cells in vitro; 2 h) was “up to 100 ug/ml” and the “Cytotoxicity on prolonged exposure” value (cells in vitro) was “reversible cytotoxicity”. For the same compound, the LD50 (mice; intraperitoneal) was 50 mg/kg, the “Time to clearance from all tissues but liver” value (mice; intraperitoneal) was ≤ 24 h and the “Recovery of injected cytochalasin B” value (mice; within a few minutes following injection) was 35%.
